# In US20110150974A1, “Agent For Oral Mucosal Administration” (DAIICHI PHARMACEUTICAL CO., LTD., priority 2004, published 2011):
# Structures can show the parent of a compound that is named as a salt.
# Experiments:
# [1] = system: Human Oral Mucosa; assay: Influences of pH and additives on drug absorption from human oral mucosa (gargle test); format: in vivo; conditions: healthy volunteers, FIG. 2
# Procedure: Healthy volunteers were made to clean their teeth and then gargle with 10 mL of each test solution (Examples 1 to 4) for 2 minutes, the gargles were collected, and then the oral cavity was washed twice with 10 mL of distilled water for 10 seconds. All the mouth wash was added to the test solution after gargling. The amounts of cevimeline hydrochloride in the test solutions before and after the gargling were measured by HPLC, and the difference between the samples was calculated as the amount of absorption to the oral mucosa.
# [2] = Drug distribution to each tissue in rats (oral mucosal vs oral administration); format: in vivo, Rats (male Wistar)
# Procedure: Rats (9-week old male Wistar rats, body weight: 172 to 205 g) were fixed at the dorsal position under urethane (1.25 g/kg i.p.) anesthesia. The test preparation was administered, and plasma and tissues (minor salivary glands, stomach, small intestine, liver, kidney) were collected 0.5, 1, 2, 4 and 8 hours later for observation of the condition of the application site of the preparation and measurement of the concentration in each tissue. The surface of the minor salivary glands was rinsed with physiological saline, and contents were removed from the stomach and the small intestine, which were rinsed in physiological saline. Each collected tissue was stored at −40° C. before the measurement. The medicament concentration in each tissue was measured by LC/MS/MS.
# [3] = system: xerostomia caused by Sjogren's syndrome; conditions: oral preparations, cited from earlier work
compound,measurement,setting,value
"CC1OC2(CS1)CN1CCC2CC1 (racemic) [cevimeline hydrochloride hydrate, (±)-cis-2-methylspiro(1,3-oxathiolane-5,3′-quinuclidine) monohydrochloride monohydrate]",amount of absorption to the oral mucosa,"[1]; pH 8.0, triethanolamine/hydrochloric acid buffer compared with McIlvaine buffer, gargle 10 mL for 2 minutes",larger
same,amount absorbed from oral mucosa,"[1]; pH 8.0 compared with pH 6.0, gargle",more
same,oral mucosal absorbability,"[1]; triethanolamine concentration of 1.5% compared with 0.3%, pH 8.0, gargle",better
same,mucosal irritancy at the application site,[2]; oral mucosal administration (patch of Example 9),no mucosal irritancy was observed
same,drug concentration in the stomach,"[2]; oral mucosal administration (patch of Example 9) compared with oral administration, 0.5-8 hours, FIG. 5",lower
same,drug concentration in the small intestine,"[2]; oral mucosal administration (patch of Example 9) compared with oral administration, 0.5-8 hours, FIG. 6",lower
same,drug concentration in the kidney,"[2]; oral mucosal administration (patch of Example 9) compared with oral administration, 0.5-8 hours, FIG. 8",lower
same,drug concentration in the liver,"[2]; oral mucosal administration (patch of Example 9) compared with oral administration, 0.5-8 hours, FIG. 9",lower
same,plasma concentrations,"[2]; oral mucosal administration (patch of Example 9) compared with oral administration, changed less in the initial period, FIG. 10",remained constantly low
same,concentrations in the minor salivary glands,"[2]; oral mucosal administration (patch of Example 9), FIG. 11",markedly high
same,"medicament concentrations in the stomach, small intestine, kidney and liver in the initial period after administration","[2]; oral mucosal administration (patch of Example 9), up to 2 hours",apparently low
same,saliva secretion promoting effect,[3]; JP 61-280497 and 06-024981,confirmed
same,adverse reactions in the digestive system,[3]; may cause,"nausea, abdominal pain, and vomiting"
